# ChEMBL document CHEMBL5724914, “Linking interpersonal differences in gut microbiota composition and drug biotransformation activity” (2024)
# Test: (§1) The drug is tested on Z-002 corresponding to rabbit gut metagenome with ENA study accession number: PRJEB37062 and ENA sample accession number: ERS12561802 for biotransformation under anaerobic condition. The drug concentrations were measured over 9 timepoints collected between 0 and 24 hours of incubation by liquid-chromatography-coupled mass spectrometry (LC–MS)
# Details: 2 µM
# Further: call rule not given here.
row,SMILES,Bacterial Biotransformation
1,OC(Cn1cncn1)(Cn1cncn1)c1ccc(F)cc1F [FLUCONAZOLE],Compound metabolized
2,Cc1ccc(-c2cc(C(F)(F)F)nn2-c2ccc(S(N)(=O)=O)cc2)cc1 [CELECOXIB],Compound NOT metabolized

# Test: as §1, with “WLS-010” for “Z-002”, “human” for “rabbit”, “ERS12561743” for “ERS12561802”
# Details: 2 µM
row,SMILES,Bacterial Biotransformation
1,OC(Cn1cncn1)(Cn1cncn1)c1ccc(F)cc1F [FLUCONAZOLE],Compound NOT metabolized
2,Cc1ccc(-c2cc(C(F)(F)F)nn2-c2ccc(S(N)(=O)=O)cc2)cc1 [CELECOXIB],Compound metabolized

# Test: as §1, with “Z-010” for “Z-002”, “to” for “to rabbit gut”, “ERS12561810” for “ERS12561802”
# Details: 2 µM
row,SMILES,Bacterial Biotransformation
1,OC(Cn1cncn1)(Cn1cncn1)c1ccc(F)cc1F [FLUCONAZOLE],Compound NOT metabolized
2,Cc1ccc(-c2cc(C(F)(F)F)nn2-c2ccc(S(N)(=O)=O)cc2)cc1 [CELECOXIB],Compound NOT metabolized

# Details: human gut metagenome, 24 h, 2 µM
row,SMILES,Bacterial Biotransformation
1,OC(Cn1cncn1)(Cn1cncn1)c1ccc(F)cc1F [FLUCONAZOLE],Compound NOT metabolized
2,Cc1ccc(-c2cc(C(F)(F)F)nn2-c2ccc(S(N)(=O)=O)cc2)cc1 [CELECOXIB],Compound NOT metabolized

# Details: human gut metagenome, 24 h, 2 µM
# Remark: another data set of the same source
row,SMILES,Bacterial Biotransformation
1,OC(Cn1cncn1)(Cn1cncn1)c1ccc(F)cc1F [FLUCONAZOLE],Compound NOT metabolized
2,Cc1ccc(-c2cc(C(F)(F)F)nn2-c2ccc(S(N)(=O)=O)cc2)cc1 [CELECOXIB],Compound metabolized

# Test: as §1, with “Z-012” for “Z-002”, “to” for “to rabbit gut”, “ERS12561812” for “ERS12561802”
# Details: 2 µM
row,SMILES,Bacterial Biotransformation
1,OC(Cn1cncn1)(Cn1cncn1)c1ccc(F)cc1F [FLUCONAZOLE],Compound NOT metabolized
2,Cc1ccc(-c2cc(C(F)(F)F)nn2-c2ccc(S(N)(=O)=O)cc2)cc1 [CELECOXIB],Compound NOT metabolized

# Test: as §1, with “WLS-240” for “Z-002”, “human” for “rabbit”, “ERS12561773” for “ERS12561802”
# Details: 2 µM
row,SMILES,Bacterial Biotransformation
1,OC(Cn1cncn1)(Cn1cncn1)c1ccc(F)cc1F [FLUCONAZOLE],Compound metabolized
2,Cc1ccc(-c2cc(C(F)(F)F)nn2-c2ccc(S(N)(=O)=O)cc2)cc1 [CELECOXIB],Compound metabolized

# Test: as §1, with “WLS-038” for “Z-002”, “human” for “rabbit”, “ERS12561745” for “ERS12561802”
# Details: 2 µM
row,SMILES,Bacterial Biotransformation
1,OC(Cn1cncn1)(Cn1cncn1)c1ccc(F)cc1F [FLUCONAZOLE],Compound NOT metabolized
2,Cc1ccc(-c2cc(C(F)(F)F)nn2-c2ccc(S(N)(=O)=O)cc2)cc1 [CELECOXIB],Compound metabolized

# Test: as §1, with “Z-026” for “Z-002”, “to” for “to rabbit gut”, “ERS12561825” for “ERS12561802”
# Details: 2 µM
row,SMILES,Bacterial Biotransformation
1,OC(Cn1cncn1)(Cn1cncn1)c1ccc(F)cc1F [FLUCONAZOLE],Compound NOT metabolized
2,Cc1ccc(-c2cc(C(F)(F)F)nn2-c2ccc(S(N)(=O)=O)cc2)cc1 [CELECOXIB],Compound NOT metabolized

# Test: as §1, with “WLS-039” for “Z-002”, “human” for “rabbit”, “ERS12561746” for “ERS12561802”
# Details: 2 µM
row,SMILES,Bacterial Biotransformation
1,OC(Cn1cncn1)(Cn1cncn1)c1ccc(F)cc1F [FLUCONAZOLE],Compound NOT metabolized
2,Cc1ccc(-c2cc(C(F)(F)F)nn2-c2ccc(S(N)(=O)=O)cc2)cc1 [CELECOXIB],Compound metabolized

# Details: human gut metagenome, 24 h, 2 µM
# Remark: another data set of the same source
row,SMILES,Bacterial Biotransformation
1,OC(Cn1cncn1)(Cn1cncn1)c1ccc(F)cc1F [FLUCONAZOLE],Compound NOT metabolized
2,Cc1ccc(-c2cc(C(F)(F)F)nn2-c2ccc(S(N)(=O)=O)cc2)cc1 [CELECOXIB],Compound NOT metabolized

# Details: human gut metagenome, 24 h, 2 µM
# Remark: another data set of the same source
row,SMILES,Bacterial Biotransformation
1,OC(Cn1cncn1)(Cn1cncn1)c1ccc(F)cc1F [FLUCONAZOLE],Compound metabolized
2,Cc1ccc(-c2cc(C(F)(F)F)nn2-c2ccc(S(N)(=O)=O)cc2)cc1 [CELECOXIB],Compound metabolized

# Test: as §1, with “WLS-098” for “Z-002”, “human” for “rabbit”, “ERS12561754” for “ERS12561802”
# Details: 2 µM
row,SMILES,Bacterial Biotransformation
1,OC(Cn1cncn1)(Cn1cncn1)c1ccc(F)cc1F [FLUCONAZOLE],Compound metabolized
2,Cc1ccc(-c2cc(C(F)(F)F)nn2-c2ccc(S(N)(=O)=O)cc2)cc1 [CELECOXIB],Compound NOT metabolized

# Details: human gut metagenome, 24 h, 2 µM
# Remark: another data set of the same source
row,SMILES,Bacterial Biotransformation
1,OC(Cn1cncn1)(Cn1cncn1)c1ccc(F)cc1F [FLUCONAZOLE],Compound NOT metabolized
2,Cc1ccc(-c2cc(C(F)(F)F)nn2-c2ccc(S(N)(=O)=O)cc2)cc1 [CELECOXIB],Compound NOT metabolized

# Test: as §1, with “WLS-170” for “Z-002”, “human” for “rabbit”, “ERS12561762” for “ERS12561802”
# Details: 2 µM
row,SMILES,Bacterial Biotransformation
1,OC(Cn1cncn1)(Cn1cncn1)c1ccc(F)cc1F [FLUCONAZOLE],Compound metabolized
2,Cc1ccc(-c2cc(C(F)(F)F)nn2-c2ccc(S(N)(=O)=O)cc2)cc1 [CELECOXIB],Compound NOT metabolized

# Test: as §1, with “WLS-027” for “Z-002”, “human” for “rabbit”, “ERS12561744” for “ERS12561802”
# Details: 2 µM
row,SMILES,Bacterial Biotransformation
1,OC(Cn1cncn1)(Cn1cncn1)c1ccc(F)cc1F [FLUCONAZOLE],Compound metabolized
2,Cc1ccc(-c2cc(C(F)(F)F)nn2-c2ccc(S(N)(=O)=O)cc2)cc1 [CELECOXIB],Compound metabolized

# Test: as §1, with “WLS-007” for “Z-002”, “human” for “rabbit”, “ERS12561742” for “ERS12561802”
# Details: 2 µM
row,SMILES,Bacterial Biotransformation
1,OC(Cn1cncn1)(Cn1cncn1)c1ccc(F)cc1F [FLUCONAZOLE],Compound metabolized
2,Cc1ccc(-c2cc(C(F)(F)F)nn2-c2ccc(S(N)(=O)=O)cc2)cc1 [CELECOXIB],Compound metabolized

# Details: human gut metagenome, 24 h, 2 µM
# Remark: another data set of the same source
row,SMILES,Bacterial Biotransformation
1,OC(Cn1cncn1)(Cn1cncn1)c1ccc(F)cc1F [FLUCONAZOLE],Compound metabolized
2,Cc1ccc(-c2cc(C(F)(F)F)nn2-c2ccc(S(N)(=O)=O)cc2)cc1 [CELECOXIB],Compound NOT metabolized

# Test: as §1, with “Z-011” for “Z-002”, “mouse” for “rabbit”, “ERS12561811” for “ERS12561802”
# Details: 2 µM
row,SMILES,Bacterial Biotransformation
1,OC(Cn1cncn1)(Cn1cncn1)c1ccc(F)cc1F [FLUCONAZOLE],Compound NOT metabolized
2,Cc1ccc(-c2cc(C(F)(F)F)nn2-c2ccc(S(N)(=O)=O)cc2)cc1 [CELECOXIB],Compound NOT metabolized

# Details: human gut metagenome, 24 h, 2 µM
# Remark: another data set of the same source
row,SMILES,Bacterial Biotransformation
1,OC(Cn1cncn1)(Cn1cncn1)c1ccc(F)cc1F [FLUCONAZOLE],Compound metabolized
2,Cc1ccc(-c2cc(C(F)(F)F)nn2-c2ccc(S(N)(=O)=O)cc2)cc1 [CELECOXIB],Compound NOT metabolized
